In patent publication US12514251B2, “Fused heterocyclic compounds and their use as pest control agents” (priority 2020, dated 2026):

How the values were obtained:
Type in all cases: in vivo
Myzus persicae = test: Myzus persicae, leaf dip method; settings: foliar, capsicum leaf dip, third instar nymphs, 72 h after release, dead + moribund vs untreated control, read-out: percent mortality
Protocol: The leaf dip method was used for testing, wherein the required quantity of the compound was weighed and dissolved in a tube containing solvent solution. The tube was put on a vortex at 2000 rpm for 90 min for proper mixing, then diluted with 0.01% Triton-X solution to the desired test concentration. Capsicum leaves were dipped in the compound solution for 10 seconds, shade dried for 20 min and then placed, with the abaxial side of the leaf up, in single cells of a bio-assay tray containing 4 ml of a 1% agar-agar solution. Known numbers of third instar nymphs, collected in petri plates, were released into the cell with the treated leaf and the cell was covered with a perforated lid for better aeration. The trays were kept in a plant growth chamber at a temperature of 25° C. and a relative humidity of 70%. Observations on dead, moribund and alive nymphs were recorded 72 h after the release. Percent mortality was calculated by combining dead and moribund nymphs and comparing the result with the one of the untreated control.

Helicoverpa armigera = test: Helicoverpa armigera, diet incorporation method; settings: third instar larvae, 96 h after release, dead + moribund vs untreated control, read-out: percent mortality
Protocol: (§1) The diet incorporation method was used, in which the required quantity of the test compound was weighed and dissolved in a tube containing solvent solution. The tube was put on a vortex at 2000 rpm for 90 min for proper mixing. Semi-synthetic diet was incorporated into this solution when the temperature was approximately 50° C. in the bioassay containers. Compound and diet were stirred thoroughly for proper mixing and allowed to cool for 30 min. The solidified diet was cut into equal pieces, and then each piece was transferred into one cell of a bio-assay tray. A single starved third instar larva was released into each of the cells of the bioassay trays and the tray was covered with a lid. The bio-assay trays were then kept under laboratory conditions at a temperature of 25° C. and a relative humidity of 70%. Observations on dead, moribund and alive larvae were recorded 96 h after the release of the larvae. Percent mortality was calculated by combining dead and moribund larvae and comparing the result to the one of the untreated control.

Spodoptera litura = test: Spodoptera litura, diet incorporation method; settings: third instar larvae, 96 h after release, dead + moribund vs untreated control, read-out: percent mortality
Protocol: as §1, with “covered with the lid. The” for “covered with a lid. The”, “release of larvae. Percent” for “release of the larvae. Percent”

Plutella xylostella = test: Plutella xylostella, leaf dip method; settings: foliar, cabbage leaf dip, second instar larvae, 72 h after release, dead + moribund vs untreated control, read-out: percent mortality
Method in brief: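 Cabbage leaves were dipped for 10 s in compound diluted with 0.01% Triton-X, shade dried and offered singly to second instar larvae. Trays were held at 25° C. and 70% relative humidity. Dead plus moribund larvae were scored at 72 h, and percent mortality was expressed relative to untreated control.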

Row | Structure (SMILES) | mortality at 300 ppm (Myzus persicae) [%] | mortality at 300 ppm (Helicoverpa armigera) [%] | mortality at 300 ppm (Spodoptera litura) [%] | mortality at 300 ppm (Plutella xylostella) [%]
1 | CCS(=O)(=O)c1cc(O)cnc1-c1ccn2nc(C(F)(F)F)nc2n1 [Compound 109, 5-(ethylsulfonyl)-6-(2-(trifluoromethyl)-[1,2,4]triazolo[1,5-a]pyrimidin-5-yl)pyridin-3-ol] | ≥ 70 |  |  | 
2 | CCS(=O)(=O)c1cc(C2CC2)cnc1-c1ccn2nc(C(F)(F)F)cc2n1 [Compound 136, 5-(5-cyclopropyl-3-(ethylsulfonyl)pyridin-2-yl)-2-(trifluoromethyl)pyrazolo[1,5-a]pyrimidine] |  | ≥ 70 | ≥ 70 | ≥ 70
3 | CCS(=O)(=O)c1cc(OC(C)(C)C(N)=O)cnc1-c1ccn2nc(C(F)(F)F)cc2n1 [Compound 220, 2-((5-(ethylsulfonyl)-6-(2-(trifluoromethyl)pyrazolo[1,5-a]pyrimidin-5-yl)pyridin-3-yl)oxy)-2-methylpropanamide] | ≥ 70 |  |  | ≥ 70
4 | CCS(=O)(=O)c1cc(-c2ccc(OC(F)(F)C(F)F)cc2)cnc1-c1ccn2nc(C(F)(F)F)cc2n1 [Compound 96, 5-(3-(ethylsulfonyl)-5-(4-(1,1,2,2-tetrafluoroethoxy)phenyl)pyridin-2-yl)-2-(trifluoromethyl)pyrazolo[1,5-a]pyrimidine] |  | ≥ 70 | ≥ 70 | ≥ 70
5 | CCS(=O)(=O)c1cc(-c2cc(F)cc(Cl)c2)cnc1-c1ccn2nc(C(F)(F)F)cc2n1 [Compound 111, 5-(5-(3-chloro-5-fluorophenyl)-3-(ethylsulfonyl)pyridin-2-yl)-2-(trifluoromethyl)pyrazolo[1,5-a]pyrimidine] |  | ≥ 70 | ≥ 70 | ≥ 70
6 | CCS(=O)(=O)c1cc(-c2ccc(OC(F)(F)F)cc2)cnc1-c1ccn2nc(C(F)(F)F)cc2n1 [Compound 66, 5-(3-(ethylsulfonyl)-5-(4-(trifluoromethoxy)phenyl)pyridin-2-yl)-2-(trifluoromethyl)pyrazolo[1,5-a]pyrimidine] |  | ≥ 70 | ≥ 70 | ≥ 70
7 | CCS(=O)(=O)c1cc(Br)cnc1-c1ccn2nc(C(F)(F)F)cc2n1 [Compound 29, 5-(5-bromo-3-(ethylsulfonyl)pyridin-2-yl)-2-(trifluoromethyl)pyrazolo[1,5-a]pyrimidine] |  | ≥ 70 | ≥ 70 | ≥ 70
8 | CCS(=O)(=O)c1cc(-c2ccc(F)cc2)cnc1-c1ccn2nc(C(F)(F)F)cc2n1 [Compound 94, 5-(3-(ethylsulfonyl)-5-(4-fluorophenyl)pyridin-2-yl)-2-(trifluoromethyl)pyrazolo[1,5-a]pyrimidine] |  | ≥ 70 | ≥ 70 | ≥ 70
9 | CCSc1cc(Br)cnc1-c1ccnc2cc(C(F)(F)F)nn12 [Compound 11, 7-(5-bromo-3-(ethylthio)pyridin-2-yl)-2-(trifluoromethyl)pyrazolo[1,5-a]pyrimidine] | ≥ 70 |  |  | 
10 | CCS(=O)(=O)c1cc(-c2ccn3nc(C(F)(F)F)cc3n2)cnc1-n1nccn1 [Compound 39, 5-(5-(ethylsulfonyl)-6-(2H-1,2,3-triazol-2-yl)pyridin-3-yl)-2-(trifluoromethyl)pyrazolo[1,5-a]pyrimidine] |  | ≥ 70 | ≥ 70 | ≥ 70
11 | CCS(=O)(=O)c1cc(-c2ccc(Cl)c(Cl)c2)cnc1-c1ccn2nc(C(F)(F)F)cc2n1 [Compound 155, 5-(5-(3,4-dichlorophenyl)-3-(ethylsulfonyl)pyridin-2-yl)-2-(trifluoromethyl)pyrazolo[1,5-a]pyrimidine] |  | ≥ 70 | ≥ 70 | ≥ 70
12 | CCS(=O)(=O)c1cc(-c2ncccn2)cnc1-c1ccn2nc(C(F)(F)F)cc2n1 [Compound 231, 5-(3-(ethylsulfonyl)-5-(pyrimidin-2-yl)pyridin-2-yl)-2-(trifluoromethyl)pyrazolo[1,5-a]pyrimidine] |  | ≥ 70 | ≥ 70 | ≥ 70
13 | CCS(=O)(=O)c1cc(-n2nc(C(F)(F)F)cc2C)cnc1-c1ccn2nc(C(F)(F)F)cc2n1 [Compound 38, 5-(3-(ethylsulfonyl)-5-(5-methyl-3-(trifluoromethyl)-1H-pyrazol-1-yl)pyridin-2-yl)-2-(trifluoromethyl)pyrazolo[1,5-a]pyrimidine] |  | ≥ 70 | ≥ 70 | ≥ 70
14 | CCS(=O)(=O)c1cc(-c2ccc(F)c(Cl)c2)cnc1-c1ccn2nc(C(F)(F)F)cc2n1 [Compound 127, 5-(5-(3-chloro-4-fluorophenyl)-3-(ethylsulfonyl)pyridin-2-yl)-2-(trifluoromethyl)pyrazolo[1,5-a]pyrimidine] |  | ≥ 70 | ≥ 70 | ≥ 70
15 | CCS(=O)(=O)c1ccc(-n2cnc(C(F)(F)F)n2)nc1-c1ccn2nc(C(F)(F)F)cc2n1 [Compound 4, 5-(3-(ethylsulfonyl)-6-(3-(trifluoromethyl)-1H-1,2,4-triazol-1-yl)pyridin-2-yl)-2-(trifluoromethyl)pyrazolo[1,5-a]pyrimidine] |  | ≥ 70 | ≥ 70 | ≥ 70
16 | CCS(=O)(=O)c1cc(-c2ccc(Cl)c(F)c2)cnc1-c1ccn2nc(C(F)(F)F)cc2n1 [Compound 126, 5-(5-(4-chloro-3-fluorophenyl)-3-(ethylsulfonyl)pyridin-2-yl)-2-(trifluoromethyl)pyrazolo[1,5-a]pyrimidine] |  | ≥ 70 | ≥ 70 | ≥ 70
17 | CCS(=O)(=O)c1cc(-c2cccc(C(F)(F)F)c2)cnc1-c1ccn2nc(C(F)(F)F)cc2n1 [Compound 156, 5-(3-(ethylsulfonyl)-5-(3-(trifluoromethyl)phenyl)pyridin-2-yl)-2-(trifluoromethyl)pyrazolo[1,5-a]pyrimidine] |  | ≥ 70 | ≥ 70 | ≥ 70
18 | CCCNc1ccc(S(=O)(=O)CC)c(-c2ccn3nc(C(F)(F)F)cc3n2)n1 [Compound 244, 5-(ethylsulfonyl)-N-propyl-6-(2-(trifluoromethyl)pyrazolo[1,5-a]pyrimidin-5-yl)pyridin-2-amine] | ≥ 70 |  |  | ≥ 70
19 | CCS(=O)(=O)c1cc(-c2cc(Cl)cc(Cl)c2)cnc1-c1ccn2nc(C(F)(F)F)cc2n1 [Compound 76, 5-(5-(3,5-dichlorophenyl)-3-(ethylsulfonyl)pyridin-2-yl)-2-(trifluoromethyl)pyrazolo[1,5-a]pyrimidine] |  | ≥ 70 | ≥ 70 | 
20 | CCS(=O)(=O)c1cc(-c2ccc(Cl)cc2)cnc1-c1ccn2nc(C(F)(F)F)nc2n1 [Compound 101, 5-(5-(4-chlorophenyl)-3-(ethylsulfonyl)pyridin-2-yl)-2-(trifluoromethyl)-[1,2,4]triazolo[1,5-a]pyrimidine] |  |  | ≥ 70 | ≥ 70
21 | CCS(=O)(=O)c1cc(-c2ccc(OC(F)(F)F)cc2)cnc1-c1ccn2nc(C(F)(F)F)nc2n1 [Compound 100, 5-(3-(ethylsulfonyl)-5-(4-(trifluoromethoxy)phenyl)pyridin-2-yl)-2-(trifluoromethyl)-[1,2,4]triazolo[1,5-a]pyrimidine] |  | ≥ 70 | ≥ 70 | ≥ 70
22 | CCS(=O)(=O)c1ccc(-c2ccc(OC(F)(F)F)cc2)nc1-c1ccn2nc(C(F)(F)F)cc2n1 [Compound 17, 5-(3-(ethylsulfonyl)-6-(4-(trifluoromethoxy)phenyl)pyridin-2-yl)-2-(trifluoromethyl)pyrazolo[1,5-a]pyrimidine] |  |  | ≥ 70 | ≥ 70
23 | CCS(=O)(=O)c1cccnc1-c1ccn2nc(C(F)(F)F)cc2n1 [Compound 160, 5-(3-(ethylsulfonyl)pyridin-2-yl)-2-(trifluoromethyl)pyrazolo[1,5-a]pyrimidine] | ≥ 70 | ≥ 70 |  | ≥ 70
